Test results published in patent publication US20230072854A1, “PARAXANTHINE-BASED BIOACTIVE COMPOSITION AND METHOD OF USE THEREOF” (Ingenious Ingredients, LP, priority 2020, published 2023).
“Also recorded” adds a separate entry of the source.

Tests used:
volunteers [1] = test: Go/No-Go test, double blind crossover vs placebo; assay type: in vivo, human; details: 200 mg; for Response Time Average: in ms (unit assumed)
From the text: (§1) In a double blind, randomized, crossover, and repeated measures manner, 13 volunteers (10 male, 3 female, average age 24±5 years, average body weight 72.91±19.30 kg, average height 169.96±11.84 cm, average BMI 24.80±3.71 kg/m^2) participated in this study. Participants limited ingestion of caffeine and other stimulants to normal use for 48-hours, fasted for 8-hours and reported to the lab and completed 4 different cognitive function tests to assess short-term attention and inhibitory control (Go-No Go Test), sustained attention (Vigilance Task Test), working memory (Sternberg Task Test) and cognitive flexibility (Berg-Washington Card Sorting Test). Once completed, the participants ingested either a placebo or 200 mg of paraxanthine (WGI, TX, USA) with 8 ounces of water. Participants repeated cognitive function tests 1, 2, 3, 4, 5, and 6 hours after ingestion of the supplement. After one-week participants repeated the experiment while consuming the other treatment.
(§2) Data were analyzed by a General Linear Model multivariate and univariate analyses with repeated measures using body weight as a covariate. Data are expressed as means±standard deviations for the placebo (PLA) and Paraxanthine (PrX). Greenhouse-Geisser univariate p-levels are listed for time (T), weight×time (W×T) and group×time (G×T) interactions effects. Pairwise comparison is indicated by the following superscripts: †=[…] difference from baseline value; *=[…] difference from baseline; a=[…] difference between groups; b=[…] difference between groups. Eta2 vaules of […] are considered small, […] medium, and >0.14 are considered large.
A test of sustained attention and response control (i.e., attention/inhibition). Lower response times represents better ability to pay attention and inhibitory control.

Toxicity, LD50 = details: in vivo
subjects = test: Paraxanthine pre-workout, subject reports; assay type: in vivo, human; details: single subject, own words
Description: Health subjects were administered paraxanthine and asked to report their experience. Subjects reported the following.

volunteers [2] = test: Sternberg task test, double blind crossover vs placebo; assay type: in vivo, human; details: 200 mg
From the text: as §1, §2
A test of working memory, ability to make use of short-term memory. A lower reaction time means participants can access their working memory faster. The Sternberg Task test is a widely used paradigm for studying short-term/working memory (STM/WM) involving cognitive control processes.

## Cn1c(=O)[nH]c2ncn(C)c2c1=O [paraxanthine, 1,7-dimethylxanthine]
Volunteers [1]
  Round 1 Condition P mean response time (FIG. 6): no significant differences over time or between treatments
  percentage of correct answers, in words: maintained percentage of correct answers
Volunteers [1]; Mean (SEM) over all hours
  Correct Response Mean Accuracy (%): 92.5%
  Round 1: Condition P Mean - Response Time (Millisecond): 394.55 ± 18.07 Millisecond
  Round 2: Condition P Mean - Response Time (Millisecond): 356.55 ± 18.00 Millisecond
  Round 2: Condition R Mean - Response Time (Millisecond): 396.32 ± 20.27 Millisecond
  Response Time Average: 374.94 ± 17.45
Volunteers [1]; Mean (SEM) over all hours, listed as PX
  Correct Response Mean Accuracy (%): 92.5 ± 1.3%
Volunteers [1]; acute
  response times to correctly respond compared to PLA: faster response times
Volunteers [1]; hour 0 (before ingestion)
  Correct Response Mean Accuracy (%): 93.0 ± 2.9%
  Round 1: Condition P Mean - Response Time (Millisecond): 392.29 ± 44.29 Millisecond
  Round 1: Condition R Mean - Response Time (Millisecond): 344.30 ± 70.08 Millisecond
  Round 2: Condition P Mean - Response Time (Millisecond): 345.19 ± 37.11 Millisecond
  Round 2: Condition R Mean - Response Time (Millisecond): 401.46 ± 52.36 Millisecond
  Response Time Average: 373.88 ± 43.64
Volunteers [1]; hour 1 after ingestion
  Correct Response Mean Accuracy (%): 93.7 ± 2.3%
  Round 1: Condition P Mean - Response Time (Millisecond): 387.51 ± 38.34 Millisecond
  Round 1: Condition R Mean - Response Time (Millisecond): 336.24 ± 73.85 Millisecond
  Round 2: Condition P Mean - Response Time (Millisecond): 346.39 ± 47.07 Millisecond
  Round 2: Condition R Mean - Response Time (Millisecond): 390.30 ± 41.57 Millisecond
  Response Time Average: 366.68 ± 36.59
Volunteers [1]; hour 2 after ingestion
  Correct Response Mean Accuracy (%): 92.9 ± 3.6%
  Round 1: Condition P Mean - Response Time (Millisecond): 392.71 ± 38.09 Millisecond
  Round 1: Condition R Mean - Response Time (Millisecond): 347.17 ± 59.16 Millisecond
  Round 2: Condition P Mean - Response Time (Millisecond): 352.72 ± 46.18 Millisecond
  Round 2: Condition R Mean - Response Time (Millisecond): 389.31 ± 39.82 Millisecond
  Response Time Average: 371.09 ± 30.25
Volunteers [1]; hour 3 after ingestion
  Correct Response Mean Accuracy (%): 91.7%
  Round 1: Condition P Mean - Response Time (Millisecond): 402.18 Millisecond
  Round 1: Condition R Mean - Response Time (Millisecond): 360.11 Millisecond
  Round 2: Condition P Mean - Response Time (Millisecond): 372.09 Millisecond
  Round 2: Condition R Mean - Response Time (Millisecond): 401.47 Millisecond
  Response Time Average: 384.07
Volunteers [1]; hour 4 after ingestion
  Correct Response Mean Accuracy (%): 91.3%
  Round 1: Condition P Mean - Response Time (Millisecond): 387.65 Millisecond
  Round 1: Condition R Mean - Response Time (Millisecond): 350.94 Millisecond
  Round 2: Condition P Mean - Response Time (Millisecond): 362.02 Millisecond
  Round 2: Condition R Mean - Response Time (Millisecond): 399.45 Millisecond
  Response Time Average: 375.03
Volunteers [1]; hour 5 after ingestion
  Correct Response Mean Accuracy (%): 93.1%
  Round 1: Condition P Mean - Response Time (Millisecond): 406.70 Millisecond
  Round 1: Condition R Mean - Response Time (Millisecond): 365.08 Millisecond
  Round 2: Condition P Mean - Response Time (Millisecond): 359.18 Millisecond
  Round 2: Condition R Mean - Response Time (Millisecond): 405.58 Millisecond
  Response Time Average: 383.60
Volunteers [1]; hour 6 after ingestion
  Correct Response Mean Accuracy (%): 91.6 ± 4.4%
  Round 1: Condition P Mean - Response Time (Millisecond): 393.51 ± 53.02 Millisecond
  Round 1: Condition R Mean - Response Time (Millisecond): 352.14 ± 56.48 Millisecond
  Round 2: Condition P Mean - Response Time (Millisecond): 357.05 ± 99.19 Millisecond
  Round 2: Condition R Mean - Response Time (Millisecond): 387.41 ± 53.47 Millisecond
  Response Time Average: 371.27 ± 53.76
Volunteers [1]; round 1+round 2
  average response time (FIG. 10): maintained mean response time over time
Volunteers [1]; round 1, vs PLA
  Round 1 Condition R mean response time (FIG. 7): better maintained mean response time over time compared to PLA
Volunteers [1]; round 2, vs PLA
  Round 2 Condition P mean response time (FIG. 8): better maintained mean response time over time compared to PLA
  Round 2 Condition R mean response time (FIG. 9): non-significantly better maintained mean response time over time compared to PLA
Volunteers [1]; vs baseline
  change of mean response times: −0.3%
  decrease of correct responses in comparison to baseline: 0.5%
Volunteers [1]; vs placebo
  Mean Correct Responses higher compared to placebo: 1.1%
Toxicity, LD50
  LD50: 1600 mg/kg
subjects
  experience reported by subject: happier, better, more energy and focused; also recorded: phenomenal; also recorded: clean energy, but not stressed or stimmed; also recorded: it works
Volunteers [2]
  letter length 2 present reaction time (FIG. 18): significantly improved reaction times
  letter length 4 absent reaction time (FIG. 16): no significant differences over time or between treatments
